Data from patent US20260207654A1, “HEPARAN SULFATE AND ITS MIMETICS AS CHEMOKINE INHIBITORS” (INDIAN INSTITUTE OF SCIENCE EDUCATION AND RESEARCH, priority 2021, published 2026).

Assays:
Assay in all cases: Chemokine glycan microarray binding assay
Settings in all cases: maximum RFU set as 100% binding, average across 2 glycan concentrations and 3 chemokine dilutions (n=6)
CCL13 = CCL13 (Homo sapiens, UniProt Q99616)
Method: (§1) Microarray Studies: The compounds of the present invention were covalently immobilized on epoxy group collated glass slides. Slides were rehydrated with dH2O and incubated for 30 min in a staining dish with 50° C. prewarmed ethanolamine (0.05 M) in Tris-HCl (0.1 M, pH 9.0) to block the remaining reactive epoxy groups on the slide surface, then washed with 50° C. prewarmed dH2O. Slides were centrifuged at 200 g for 3 min, then fitted with the ProPlate Multi-Array 16-well slide module (Grace Bio-lab P37001) to divide into the subarrays (blocks). Slides were washed with PBST (0.1% Tween 20), aspirated, and blocked with 200 μL/subarray of blocking buffer (PBS pH 7.3+1% w/v ovalbumin) for 1 h at RT with gentle shaking. Next, the blocking solution was aspirated and 100 μL/block of primary chemokines diluted in PBS pH 7.3+1% w/v ovalbumin were incubated with gentle shaking for 2 hours at RT. Slides were washed 4 times with PBST, then with PBS (without Tween-20) for 2 min. Bound antibodies were detected by incubating with biotinylated secondary detections (1 ng/μL) diluted in PBS, 200 μL/block at RT for 1 h. Slides were washed 4 times with PBST, then with PBS (without Tween-20) for 2 min and biotinylated antibodies were detected with Cy3-SA ([…]). Slides were washed 4 times with PBST, then with PBS for 10 min followed by removal from the ProPlate Multi-Array slide module and immediately dipping in a staining dish with dH2O for 10 min with shaking. The slides were then centrifuged at 200 g for 3 min, and the dry slides immediately scanned. Binding was tested at three serial dilutions, then detected with the relevant biotinylated secondary antibody (1 μg/mL) followed by Cy3-strepavidin (1.5 μg/mL). Arrays were scanned and RFUs were calculated of chemokines binding to 100 μM glycans printed at four replicates. Rank binding of chemokines (each at three dilutions) to glycans printed at four replicates each was calculated and summarized in Table 1. For each binding assay per printed block, the maximum RFU was determined and set as 100% binding. Then, binding to all other glycans in the same block was ranked in comparison to the maximal binding, and average rank binding (and SEM) for each glycan across the three examined concentrations of each chemokine was calculated. This analysis allowed to compare the glycan-binding profiles of the different chemokines and dissect their binding preferences.
(§2) Table 1. Chemokine glycan microarray binding assay. Binding was tested at 3 serial dilutions, then detected with the relevant biotinylated secondary antibody (1 μg/ml) followed by Cy3-Strepavidin (1.5 μg/ml) (Table SX). Arrays were scanned, relative fluorescent units (RFU) obtained, and maximum RFU determined and set as 100% binding. Then rank binding (per printed glycan per concentration, per each chemokine dilution, per printed block) was determined. Since each glycans was printed at 2 concentration, 100% binding was set separately for each concentration. Then, binding to all the other glycans at the same concentration was ranked in comparison to the maximal binding, and the average rank binding and SEM for each glycan across the two glycan concentrations and three examined dilutions of each chemokine was calculated (n=6, 2 glycan concentrations across 3 chemokine dilutions). This analysis allowed to compare the glycan binding profiles of the different chemokines and dissect their binding preferences. The mean rank is shown as a heatmap of all the examined binding assays together (red highest, blue lowest and white 50th percentile of ranking).

CCL2 = CCL2 (Homo sapiens, UniProt P13500)
CCL2, sequence (P13500 24-99, species assumed): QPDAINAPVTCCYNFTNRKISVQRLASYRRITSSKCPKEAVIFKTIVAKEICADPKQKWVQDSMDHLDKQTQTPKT
Method: as §1, §2

CCL21 = molecular target: T1, CCL21 (Homo sapiens, UniProt O00585)
T1 sequence (O00585 24-134): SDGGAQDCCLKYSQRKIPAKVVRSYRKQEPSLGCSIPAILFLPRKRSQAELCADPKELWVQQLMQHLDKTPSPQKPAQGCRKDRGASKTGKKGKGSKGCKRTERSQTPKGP
Method: as §1, §2

CCL28 = molecular target: T2, CCL28 (Homo sapiens, UniProt Q9NRJ3)
T2 sequence (Q9NRJ3 20-127): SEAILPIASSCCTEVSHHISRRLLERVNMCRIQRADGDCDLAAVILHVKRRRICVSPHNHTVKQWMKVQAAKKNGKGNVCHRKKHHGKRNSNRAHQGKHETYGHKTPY
Method: as §1, §2

CCL5 = molecular target: T3, CCL5 (Homo sapiens, UniProt P13501)
T3 sequence (P13501 24-91): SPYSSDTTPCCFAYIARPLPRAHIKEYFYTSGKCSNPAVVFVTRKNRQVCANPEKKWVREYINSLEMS
Method: as §1, §2

CCL7 = CCL7 (Homo sapiens, UniProt P80098)
CCL7, sequence (P80098 24-99, species assumed): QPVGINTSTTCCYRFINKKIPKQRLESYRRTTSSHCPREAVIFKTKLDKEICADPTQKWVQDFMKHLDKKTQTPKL
Method: as §1, §2

CXCL10 = molecular target: T4, CXCL10 (Homo sapiens, UniProt P02778)
T4 sequence (P02778 22-98): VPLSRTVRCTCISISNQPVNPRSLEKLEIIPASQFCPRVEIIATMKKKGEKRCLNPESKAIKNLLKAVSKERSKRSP
Method: as §1, §2

CXCL12 = CXCL12 (Homo sapiens, UniProt P48061)
CXCL12, sequence (P48061 22-93, species assumed): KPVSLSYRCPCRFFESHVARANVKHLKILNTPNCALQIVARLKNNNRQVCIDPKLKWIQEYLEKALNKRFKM
Method: as §1, §2

CXCL8 = molecular target: T5, CXCL8 (Homo sapiens, UniProt P10145)
T5 sequence (P10145 21-99): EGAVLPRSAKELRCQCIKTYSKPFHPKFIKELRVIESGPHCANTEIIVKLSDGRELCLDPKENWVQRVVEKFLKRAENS
Method: as §1, §2

CCL13, sequence (Q99616 17-98, species assumed): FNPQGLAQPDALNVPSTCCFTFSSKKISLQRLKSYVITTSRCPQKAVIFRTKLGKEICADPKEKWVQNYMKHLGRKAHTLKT

| mean rank binding to CCL13 (CCL13) | mean rank binding to CCL2 (CCL2) | mean rank binding to CCL21 (CCL21) | mean rank binding to CCL28 (CCL28) | mean rank binding to CCL5 (CCL5) | mean rank binding to CCL7 (CCL7) | mean rank binding to CXCL10 (CXCL10) | mean rank binding to CXCL12 (CXCL12) | mean rank binding to CXCL8 (CXCL8) | Compound |
| --- | --- | --- | --- | --- | --- | --- | --- | --- | --- |
| 88% | 69% | 86% | 76% | 86% | 87% | 96% | 98% | 83% | NCCOCCO[C@@H]1OC(C(=O)O)[C@@H](O[C@@H]2OC(C(=O)O)[C@@H](O[C@@H]3OC(C(=O)O)[C@@H](O[C@@H]4OC(C(=O)O)[C@@H](O)C(O)C4O)C(O)C3O)C(O)C2O)C(O)C1O (stereo partly drawn) [Example 10, Ethoxy-2-aminoethoxyl-O-(α-L-idopyranosyl Uronic Acid-α(1→4)-α-L-idopyranosyluronic acid-α(1→4)-α-L-idopyranosyluronic acid-α(1→4))-α-L-idopyranoside Uronic Acid] |
| 67% | 67% | 80% | 84% | 80% | 79% | 74% | 82% | 95% | NCCOCCO[C@@H]1O[C@@H](C(=O)O)[C@@H](O[C@@H]2O[C@@H](C(=O)O)[C@@H](O[C@@H]3O[C@@H](C(=O)O)[C@@H](O[C@@H]4O[C@@H](C(=O)O)[C@@H](OS(=O)(=O)O)[C@H](O)[C@H]4O)[C@H](O)[C@H]3O)[C@H](O)[C@H]2O)[C@H](O)[C@H]1O [Example 11, Ethoxy-2-aminoethoxyl-O-(4-O-sulfonato)-α-L-idopyranosyl Uronic Acid-α(1→4)-α-L-Idopyranosyl Uronic Acid-α(1→4)-α-L-idopyranosyl Uronic Acid-α(1→4)-α-L-idopyranoside Uronic Acid] |
| 64% | 3% | 62% | 36% | 3% | 45% | 39% | 51% | 13% | NCCCO[C@@H]1OC(C(=O)O)[C@@H](O[C@H]2OC(CO)[C@@H](O[C@@H]3OC(C(=O)O)[C@@H](O[C@H]4OC(CO)[C@@H](O)C(O)C4N)C(O)C3O)C(O)C2N)C(O)C1O (stereo partly drawn) [Example 15, 3-Aminopropyl-O-[(2-amino-2-deoxy-α-D-glucopyranosyl)-(1→4)-O-(α-L-idopyranosyluronate)-(1→4)-O-(2-amino-2-deoxy-α-D-glucopyranosyl)]-(1→4)-O-α-L-idopyranosiduronate] |
| 24% | 0% | 27% | 22% | 1% | 2% | 14% | 16% | 3% | CC(=O)NC1C(O)[C@H](O)C(CO)O[C@@H]1O[C@@H]1C(C(=O)O)O[C@@H](O[C@@H]2C(CO)O[C@H](O[C@@H]3C(C(=O)O)O[C@@H](OCCCN)C(O)C3O)C(NC(C)=O)C2O)C(O)C1O (stereo partly drawn) [Example 16, 3-Aminopropyl-O-[(2-acetamido-2-deoxy-α-D-glucopyranosyl)-(1→4)-O-(α-L-idopyranosyluronate)-(1→4)-O-(2-acetamido-2-deoxy-α-D-glucopyranosyl)]-(1→4)-O-α-L-idopyranosiduronate] |

Second part, the compound before the results:

| Compound | mean rank binding to CCL13 (CCL13) | mean rank binding to CCL2 (CCL2) | mean rank binding to CCL21 (CCL21) | mean rank binding to CCL28 (CCL28) | mean rank binding to CCL5 (CCL5) | mean rank binding to CCL7 (CCL7) | mean rank binding to CXCL10 (CXCL10) | mean rank binding to CXCL12 (CXCL12) | mean rank binding to CXCL8 (CXCL8) |
| --- | --- | --- | --- | --- | --- | --- | --- | --- | --- |
| CC(=O)NC1C(O)[C@H](O)C(CO)O[C@@H]1O[C@@H]1C(C(=O)O)O[C@@H](O[C@@H]2C(CO)O[C@H](O[C@@H]3C(C(=O)O)O[C@@H](OCCCN)C(OS(=O)(=O)O)C3O)C(NC(C)=O)C2O)C(OS(=O)(=O)O)C1O (stereo partly drawn) [Example 14, 3-Aminopropyl-O-[(2-acetamido-2-deoxy-α-D-glucopyranosyl)-(1→4)-O-(2-O-sulfonato-α-L-idopyranosyluronate)-(1→4)-O-(2-acetamido-2-deoxy-α-D-glucopyranosyl)]-(1→4)-O-2-O-sulfonato-α-L-idopyranosiduronate] | 21% | 0% | 23% | 21% | 1% | 1% | 11% | 11% | 2% |
| NCCCO[C@@H]1O[C@@H](C(=O)O)[C@@H](O[C@H]2O[C@H](CO)[C@@H](O[C@@H]3O[C@@H](C(=O)O)[C@@H](O[C@H]4O[C@H](CO)[C@@H](O)[C@H](OS(=O)(=O)O)[C@H]4N)[C@H](O)[C@H]3OS(=O)(=O)O)[C@H](OS(=O)(=O)O)[C@H]2N)[C@H](O)[C@H]1OS(=O)(=O)O [Example 18, 3-Aminopropyl-O-[(2-amino-3-O-sulfonato-2-deoxy-α-D-glucopyranosyl)-(1→4)-O-(2-O-sulfonato-α-L-idopyranosyluronate)-(1→4)-O-(2-amino-3-O-sulfonato-2-deoxy-α-D-glucopyranosyl)]-(1→4)-O-2-O-sulfonato-α-L-idopyranosiduronate] | 64% | 1% | 48% | 66% | 4% | 35% | 27% | 45% | 9% |
| CC(=O)NC1C(O)[C@H](O)C(COS(=O)(=O)O)O[C@@H]1O[C@@H]1C(C(=O)O)O[C@@H](O[C@@H]2C(COS(=O)(=O)O)O[C@H](O[C@@H]3C(C(=O)O)O[C@@H](OCCCN)C(OS(=O)(=O)O)C3O)C(NC(C)=O)C2O)C(OS(=O)(=O)O)C1O (stereo partly drawn) [Example 20, 3-Aminopropyl-O-[(2-acetamido-6-O-sulfonato-2-deoxy-α-D-glucopyranosyl)-(1→4)-O-(2-O-sulfonato-α-L-idopyranosyluronate)-(1→4)-O-(2-acetamido-6-O-sulfonato-2-deoxy-α-D-glucopyranosyl)]-(1→4)-O-2-O-sulfonato-α-L-idopyranosiduronate] | 79% | 30% | 71% | 66% | 54% | 86% | 64% | 69% | 53% |
